According to patent US6399641B1, “2H-tetrazole-amide compounds with therapeutic activity as metabotropic glutamate receptor agonists” (Hoffmann-la Roche Inc., priority 2000, dated 2002):

Key:
[1] = biological target: T1, rat mGlu1a receptor (Rattus norvegicus, UniProt P23385); test: [Ca2+]i measurement (FLIPR) on mGlu1a transfected EBNA cells; format: cell-based; settings: agonist activity, rat mGlu1a transiently transfected EBNA cells, Fluo-3 AM
T1 construct: expressed in transfected cells; host or cells: EBNA cells (transient transfection)
Method: cDNA encoding for rat mGlu1a receptor obtained from Prof. S. Nakanishi (Kyoto, Japan) was transiently transfected into EBNA cells using a procedure described by Schlaeger & Christensen, 1998. [Ca^2+]i measurement were performed on mGlu1a transfected EBNA cells after incubation of the cells with Fluo-3 AM (0.5 μM final concentration) for 1 hour at 37° C. followed by 4 washes with assay buffer (DMEM supplemented with Hank's salt and 20 mM HEPES). [Ca^2+]i measurement were done using a fluorometric imaging plate reader (FLIPR, Molecular Devices Corporation, La Jolla, Calif., USA). When compounds were evaluated as antagonists they were tested against 10 μM glutamate as agonist.
The inhibition (antagonists) or activation (agonists) curves were fitted with a four parameter logistic equation giving EC50, IC50 and Hill coefficient using the iterative non linear curve fitting software Origin (Microcal Software Inc., Northampton, Mass., USA). E.-J. Schlaeger and K. Christensen Transient gene expression in mammalian cells grown in serum-free suspension culture. Cytotechnology, 30:71-83, 1999.

T1 sequence (P23385 19-1199): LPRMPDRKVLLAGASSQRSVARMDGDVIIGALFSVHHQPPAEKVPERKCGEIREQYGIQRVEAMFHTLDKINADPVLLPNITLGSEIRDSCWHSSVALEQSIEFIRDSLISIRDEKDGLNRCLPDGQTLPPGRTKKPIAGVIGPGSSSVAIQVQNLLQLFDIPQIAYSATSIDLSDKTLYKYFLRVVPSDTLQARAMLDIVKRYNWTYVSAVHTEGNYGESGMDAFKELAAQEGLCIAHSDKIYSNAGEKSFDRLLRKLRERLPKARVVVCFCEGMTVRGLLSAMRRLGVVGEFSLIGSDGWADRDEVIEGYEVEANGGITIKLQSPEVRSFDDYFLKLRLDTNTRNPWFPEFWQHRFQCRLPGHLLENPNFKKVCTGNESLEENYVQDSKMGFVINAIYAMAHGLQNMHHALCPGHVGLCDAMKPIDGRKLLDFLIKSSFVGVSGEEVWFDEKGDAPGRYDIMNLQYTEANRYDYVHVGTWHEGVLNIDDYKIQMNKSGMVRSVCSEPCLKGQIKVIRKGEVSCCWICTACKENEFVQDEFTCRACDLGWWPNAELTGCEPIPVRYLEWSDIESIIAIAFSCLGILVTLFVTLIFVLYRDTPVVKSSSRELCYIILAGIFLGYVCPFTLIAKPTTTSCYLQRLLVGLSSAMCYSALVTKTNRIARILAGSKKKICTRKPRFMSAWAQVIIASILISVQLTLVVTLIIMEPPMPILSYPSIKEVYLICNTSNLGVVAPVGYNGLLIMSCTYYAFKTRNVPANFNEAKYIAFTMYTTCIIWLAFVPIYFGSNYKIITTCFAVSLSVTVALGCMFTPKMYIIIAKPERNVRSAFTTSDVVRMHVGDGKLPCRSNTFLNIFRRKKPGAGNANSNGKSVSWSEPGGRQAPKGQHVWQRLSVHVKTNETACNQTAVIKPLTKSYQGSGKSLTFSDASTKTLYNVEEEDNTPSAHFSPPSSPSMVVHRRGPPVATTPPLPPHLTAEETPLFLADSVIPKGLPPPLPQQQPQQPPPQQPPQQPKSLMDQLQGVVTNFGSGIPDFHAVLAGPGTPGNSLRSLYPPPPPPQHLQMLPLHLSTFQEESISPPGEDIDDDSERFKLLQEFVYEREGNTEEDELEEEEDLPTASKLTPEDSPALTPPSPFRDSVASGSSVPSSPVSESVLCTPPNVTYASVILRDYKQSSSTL

| Molecule | melting point | EC50 [1] |
| --- | --- | --- |
| COCn1nnc(NC(=O)C2c3ccccc3Oc3ccccc32)n1 [Example 14, 9H-Xanthene-9-carboxylic acid (2-methoxymethyl-2H-tetrazol-5-yl)-amide] | 221 to 222 °C |  |
| O=C(Nc1nnn(CC(F)(F)F)n1)C(c1ccccc1)c1ccccc1 [Example 9, 2,2-Diphenyl-N-[2-(2,2,2-trifluoro-ethyl)-2H-tetrazol-5-yl]-acetamide] | 146 to 148 °C | 2000 nM |
| O=C(Nc1nnn(CC2CC2)n1)C1c2ccccc2Oc2ccccc21 [Example 6, 9H-Xanthene-9-carboxylic acid (2-cyclopropylmethyl-2H-tetrazol-5-yl)-amide] | 222 to 224 °C |  |
| CCCn1nnc(NC(=O)C(c2ccccc2)c2ccccc2)n1 [Example 11, 2,2-Diphenyl-N-(2-propyl-2H-tetrazol-5-yl)-acetamide] | 124 to 125 °C |  |
| Cn1nnc(NC(=O)C(c2ccccc2)c2ccccc2)n1 [Example 1, N-(2-Methyl-2H-tetrazol-5-yl)-2,2-diphenyl-acetamide] | 218 °C (dec.) | 220 nM |
| CC(C)n1nnc(NC(=O)C2c3ccccc3Oc3ccccc32)n1 [Example 8, 9H-Xanthene-9-carboxylic acid (2-isopropyl-2H-tetrazol-5-yl)-amide] |  | 45 nM |
| COCn1nnc(NC(=O)C(c2ccccc2)c2ccccc2)n1 [Example 13, N-(2-Methoxymethyl-2H-tetrazol-5-yl)-2,2-diphenyl-acetamide] | 127 to 128 °C |  |
| CCn1nnc(NC(=O)C2c3ccccc3Oc3ccccc32)n1 [Example 4, 9H-Xanthene-9-carboxylic acid (2-ethyl-2H-tetrazol-5-yl)-amide] | 228 °C (dec.) |  |
| CC(C)n1nnc(NC(=O)C(c2ccccc2)c2ccccc2)n1 [Example 7, N-(2-Isopropyl-2H-tetrazol-5-yl)-2,2-diphenyl-acetamide] | 175 to 177 °C | 100 nM |
| O=C(Nc1nnn(CC2CC2)n1)C(c1ccccc1)c1ccccc1 [Example 5, N-(2-Cyclopropylmethyl-2H-tetrazol-5-yl)-2,2-diphenyl-acetamide] | 147 to 148 °C |  |
| CC(C)(C)n1nnc(NC(=O)C(c2ccccc2)c2ccccc2)n1 [Example 15, N-(2-tert-Butyl-2H-tetrazol-5-yl)-2,2-diphenyl-acetamide] | 191 to 192 °C |  |
| Cn1nnc(NC(=O)C2c3ccccc3Oc3ccccc32)n1 [Example 2, 9-Xanthene-9-carboxylic acid (2-methyl-2H-tetrazol-5-yl)-amide] | 247 °C (dec.) | 180 nM |
| CC(C)(C)n1nnc(NC(=O)C2c3ccccc3Oc3ccccc32)n1 [Example 16, 9H-Xanthene-9-carboxylic acid (2-tert-butyl-2H-tetrazol-5-yl)-amide] | 230 to 231 °C |  |
| O=C(Nc1nnn(CC(F)(F)F)n1)C1c2ccccc2Oc2ccccc21 [Example 10, 9H-Xanthene-9-carboxylic acid [2-(2,2,2-trifluoro-ethyl)-2H-tetrazol-5-yl]-amide] | 209 to 210 °C | 170 nM |
| CCCn1nnc(NC(=O)C2c3ccccc3Oc3ccccc32)n1 [Example 12, 9H-Xanthene-9-carboxylic acid (2-propyl-2H-tetrazol-5-yl)-amide] | 208 to 209 °C |  |
| CCn1nnc(NC(=O)C(c2ccccc2)c2ccccc2)n1 [Example 3, N-(2-Ethyl-2H-tetrazol-5-yl)-2,2-diphenyl-acetamide] | 169 to 170 °C |  |

The next lines start with the values.

| melting point | EC50 [1] | Molecule |
| --- | --- | --- |
| 204 to 205 °C |  | N#CCn1nnc(NC(=O)C2c3ccccc3Oc3ccccc32)n1 [Example 20, 9H-Xanthene-9-carboxylic acid (2-cyanomethyl-2H-tetrazol-5-yl)-amide] |
| 173 to 174 °C |  | N#CCn1nnc(NC(=O)C(c2ccccc2)c2ccccc2)n1 [Example 19, N-(2-Cyanomethyl-2H-tetrazol-5-yl)-2,2-diphenyl-acetamide] |
| 206 to 207 °C |  | CCn1nnc(NC(=O)C2c3ccccc3Cc3ccccc32)n1 [Example 23, 9,10-Dihydro-anthracene-9-carboxylic acid (2-ethyl-2H-tetrazol-5-yl)-amide] |
|  | 1390 nM | 9H-Thioxanthene-9-carboxylic acid (2-ethyl-2H-tetrazol-5-yl)-amide [Example 25] |
| 143 to 145 °C |  | O=C(Nc1nnn(C(F)F)n1)C(c1ccccc1)c1ccccc1 [Example 17, N-(2-Difluoromethyl-2H-tetrazol-5-yl)-2,2-diphenyl-acetamide] |
| 243 to 244 °C |  | COC(=O)Cn1nnc(NC(=O)C2c3ccccc3Oc3ccccc32)n1 [Example 22, {5-[(9H-Xanthene-9-carbonyl)-amino]-tetrazol-2-yl}-acetic acid methyl ester] |
| 208 to 210 °C (dec.) | 190 nM | CCn1nnc(NC(=O)C2c3ccccc3Oc3ccc(OC)cc32)n1 (racemic) [Example 27, (RS)-2-Methoxy-9H-xanthene-9-carboxylic acid (2-ethyl-2H-tetrazol-5-yl)-amide] |
| 259 to 260 °C (dec.) |  | CCn1nnc(NC(=O)C2c3ccccc3Oc3cccc(OC)c32)n1 (racemic) [Example 26, (RS)-1-Methoxy-9H-xanthene-9-carboxylic acid (2-ethyl-2H-tetrazol-5-yl)-amide] |
| 168 to 169 °C |  | O=C(Nc1nnn(C(F)F)n1)C1c2ccccc2Oc2ccccc21 [Example 18, 9H-Xanthene-9-carboxylic acid (2-difluoromethyl-2H-tetrazol-5-yl)-amide] |
| 168 to 169 °C |  | COC(=O)Cn1nnc(NC(=O)C(c2ccccc2)c2ccccc2)n1 [Example 21, (5-Diphenylacetylamino-tetrazol-2-yl)-acetic acid methyl ester] |
| 239 to 240 °C (dec.) |  | CCn1nnc(NC(=O)C2c3ccccc3Oc3c(OC)cccc32)n1 (racemic) [Example 28, (RS)-4-Methoxy-9H-xanthene-9-carboxylic acid (2-ethyl-2H-tetrazol-5-yl)-amide] |
| 158 to 159 °C | 470 nM | CCn1nnc(NC(=O)C2c3ccccc3COc3ccccc32)n1 (racemic) [Example 24, (RS)-6,11 -Dihydro-dibenzo[b,e]oxepine-11-carboxylic acid (2-ethyl-2H-tetrazol-5-yl)-amide] |
